Reference: patent US20050250853A1, “Beta-tubulin inhibitors” (priority 1999, published 2005)
Entries after “also recorded” stand apart in the source; their conditions may differ. Marks after values point to notes of the source that are not given here.

How the values were obtained:
β-tubulin [1] = experiment: Separation of soluble and polymerized tubulins, Western blot of β-tubulin; type: cell-based, human; settings: MDA-MB-231 cells, 30 μM, 24 h and 48 h; for formation of modified β-tubulin (second immunoreactive band of lower Mr): free tubulin fraction
Experimental: FIG. 2. Effects of CEU derivatives on microtubule depolymerization. Exponentially growing MDA-MB-231 cells were incubated in the absence or the presence of 30 μM of CEU derivatives including (A) 4-tBCEU, 4-iPCEU or 4-sBCEU for 24 and 48 h respectively; (B) 2-ECEU, 3-ECEU or 4-ECEU for 24 and 48 h; and (C) 4-tBEU, 4-iPEU, 4-sBEU, 4-tBCPU, CEU or 4-methoxyCEU for 48 h. Free tubulin and microtubule fractions were isolated and analyzed by Western blot. Data are representative of three different experiments.
Separation of soluble and polymerized tubulins from MDA-MB231 cells was carried out as described by Minotti et al. (14) with minor modifications. Briefly, after drug exposure, about 5×10^6 cells in 100-mm petri dishes were washed with PBS at 37° C. and harvested in 3 ml of PBS containing 0.4 μg/ml of taxol using a rubber policeman.
Cells were centrifuged and lysed using 250 μl of microtubule-stabilizing buffer (20 mM Tris-HCl, pH 6.8, 140 mM NaCl, 1 mM MgCl2, 2 mM EDTA, 0.5% Nonidet P-40 and 0.4 μg/ml taxol), and then transferred to 1.5 ml microcentrifuge tubes. Samples were centrifuged at 12,000×g for 10 min at 4° C. and the supernatants containing soluble tubulin were placed in separate microcentrifuge tubes containing 250 μl of 2× Laemmli sample buffer (15). Pellets containing the polymerized tubulin were resuspended in 250 μl of water, followed by two freeze/thawing cycles, and the addition of 250 μl of 2× Laemmli sample buffer. Samples were analyzed by SDS-PAGE and immunoassay was performed as described below.
(§1) Samples (1×10^5 cells) were analyzed by 10% SDS-PAGE using the Laemmli system (15). Membranes were then incubated with PBSMT (PBS, pH 7.4, 5% fat-free dry milk and 0.1% Tween-20) for 1 h at room temperature, and then with 1:500 monoclonal anti-β-tubulin (clone TUB 2.1, Sigma) or 1:400 anti (clone no. SDL.3D10, Sigma) for 1 h. […] Membranes were washed with PBSMT and incubated with 1:2500 peroxidase-conjugated anti-mouse immunoglobulin (Amersham Canada, Oakville, Canada) in PBSMT for 30 min. Detection of the immunoblot was carried out with the ECL Western blotting detection reagent kit (Amersham Canada, Oakville, Canada).

MDA-MB-231 cells [2] = experiment: cells; type: cell-based, human
Experimental: (§2) Human breast carcinoma cell line, MDA-MB-231, was obtained from the American Type Culture Collection (ATCC HTB-26; Bethesda, Md.). MDA-MB-231 cells were grown in RPMI 1640 medium supplemented with 10% bovine calf serum (Hyclone, Road Logan, Utah). Wild-type Chinese Hamster Ovary cells (CHO-10001) (7), colchicine- and vinblastine-resistant (CHO-VV 3-2) (8) and taxol-resistant (CHO-TAX 5-6) cells (9) were generously provided by Dr. Fernando Cabral (University of Texas Medical School, Houston, Tex.). These cells were cultured in RPMI 1640 containing 10% fetal bovine serum. SK—N—SH human neuroblastoma cells, (ATCC HTB-11; Bethesda, Md.) were cultured in MEM medium supplemented with 2 mM L-glutamine, 1.5 g/liter sodium bicarbonate, 0.1 mM non-essential amino acids, 1 mM sodium pyruvate and 10% fetal bovine serum. Cells were cultured in a humidified atmosphere at 37° C. in 5% CO2.
(§3) Cytotoxicity was assessed using the MTT assay (3-(4,5-dimethylthiazol-2-yl)-2,5-diphenyltetrazolium bromide) as described by Carmichael et al. (12).

[3] = Kinetics of alkylation of 4-(4-nitrobenzyl)pyridine (colorimetric assay); type: physicochemical; settings: 80° C., pH 4.3, absorbance at 570 nm, linear regression, mean ± SD
Experimental: The rate constant of alkylation (K′) of CEU derivatives and chlorambucil was evaluated by a […] assay as described by Bardos et al (13). Briefly, 1 ml of a 10% (v/v) solution of 4-(4-nitrobenzyl)pyridine in ethanol and 1 ml of 50 mM sodium acetate (pH 4.3) were added to an ethanol solution (95%) containing 400 nmol per ml of either chlorambucil or CEU and heated to 80° C. in a shaking water bath for 60, 90, 120 or 150 min. The reaction was stopped by cooling the mixtures on ice for 5 min. Then, 1.5 ml of 0.1 M KOH: ethanol (1:2, v/v) were added to the reaction mixture. Samples were vortexed for 12 sec and set aside for 2.5 min prior to reading the absorbance at 570 nm. The values were compared with those obtained using a blank sample containing all reagents except the alkylating agent.

MDA-MB-231 cells [4] = experiment: Cell cycle analysis by propidium iodide flow cytometry; type: cell-based, human; settings: CEU derivatives at 30 μM, 24 h; flow cytometry
Experimental: FIG. 1. Effect of CEU derivatives on cell cycle. Exponentially growing MDA-MB-231 cells were incubated in the absence or presence of 30 μM of either 4-tBCEU, 4-iPCEU or 4-sBCEU for 24 and 48 h, respectively, at 37° C. The cell cycle was evaluated using propidium iodide staining and flow cytometric analysis. Data are representative of three independent experiments.
Following incubation of MDA-MB-231 cells with 4-tBCEU, 4-iPCEU or 4-sBCEU, the cells were harvested, resuspended in 1 ml PBS and fixed by the addition of 2.4 ml of ice cold anhydrous ethanol. Then, 5×10^5 cells from each sample were centrifuged for 3 min at 1000×g. Cell pellets were resuspended in PBS containing 50 μg/ml of PI and 40 U/ml of ribonuclease A (Boehringer Mannheim, Laval, Calif.). Mixtures were incubated at room temperature for 30 min and cell cycle distribution was analyzed using an Epics Elite ESP flow cytometer (Coulter Corporation, Miami, Fla., USA).
The effect of CEU, namely 4-tBCEU, 4-PCEU and 4-sBCEU, on the cell cycle was analyzed. To this end, exponentially growing MDA-MB-231 cells were treated with 30 μM 4-tBCEU, 4-iPCEU or 4-sBCEU for 24 or 48 h followed by an evaluation of cell cycle distribution by flow cytometry using propidium iodide, a fluorescent DNA dye. […] Induction of mitosis blockage in prophase by CEU derivatives was confirmed by mitotic index analysis as described by Drouin (22).

CHO VV 3-2 cells = experiment: MTT cytotoxicity on vinblastine- and colchicine-resistant CHO cells expressing mutated tubulin; type: cell-based, Chinese hamster; settings: Cricetulus griseus, CHO-VV 3-2; vinblastine- and colchicine-resistant CHO cells, 120 h, MTT, mean ± SD; read-out: IC50 CHO VV 3-2
Experimental: as §2, with “Wild-type Chinese Hamster Ovary cells (CHO-10001) (7), colchicine- and vinblastine-resistant (CHO-VV 3-2) (8) and taxol-resistant (CHO-TAX 5-6) cells (9) were generously provided by Dr. Fernando Cabral (University of Texas Medical School, Houston, Tex.).” left out
as §3
(§4) The cytotoxicity of 4-tBCEU, 4-iPCEU and 4-sBCEU in two CHO cell lines having differential sensitivity to antmicrotubule agents was evaluated. These cell lines are derived from parental CHO-10001 cells and express mutated tubulins.

[5] = test system: CHO 10001 cells (wild-type); experiment: MTT cytotoxicity on wild-type CHO cells; type: cell-based, Chinese hamster; settings: Cricetulus griseus, CHO10001; wild-type CHO cells, 120 h, MTT, mean ± SD; read-out: IC50 CHO 10001
Experimental: as §2, with “Wild-type Chinese Hamster Ovary cells (CHO-10001) (7), colchicine- and vinblastine-resistant (CHO-VV 3-2) (8) and taxol-resistant (CHO-TAX 5-6) cells (9) were generously provided by Dr. Fernando Cabral (University of Texas Medical School, Houston, Tex.).” left out
as §3, §4

β-tubulin [6] = experiment: Competition with antimicrotubule agents for the site of β-tubulin alkylation; type: cell-based, human; settings: for effect of competitor on formation of modified β-tubulin induced by CEU: MDA-MB-231 cells, 48 h, 30 μM CEU with 5 μM taxol, colchicine or vinblastine or 100 μM iodoacetamide
Experimental: FIG. 6. Identification of the site of alkylation of β-tubulin by CEU: competition with antimicrotubule agents. […] Data are representative of three different experiments.
as §1
The latter agents were used because they have well defined binding sites on β-tubulin (24-28) and because they were expected to inhibit alkylation by CEU if they shared a common binding site. […] These putative alkylation sites are two nucleophilic mercapto groups of cysteine residues at positions 239 and 354, respectively (25). To assess the possible alkylation of these mercapto residues by CEU, MDA-MB-231 cells were treated with 4-tBCEU in the presence of iodoacetamide, a specific thiol alkylating agent (31, 32). […] Similar experiments were carried out using EBI, a bifunctional alkylating agent that specifically induces cross-linking between Cys239 and Cys354 of β-tubulin (32).

CHO TAX 5-6 cells = experiment: MTT cytotoxicity on taxol-resistant CHO cells expressing mutated tubulin; type: cell-based, Chinese hamster; settings: Cricetulus griseus, CHO-TAX 5-6; taxol-resistant CHO cells, 120 h, MTT, mean ± SD; read-out: IC50 CHO TAX 5-6
Experimental: as §2, with “Wild-type Chinese Hamster Ovary cells (CHO-10001) (7), colchicine- and vinblastine-resistant (CHO-VV 3-2) (8) and taxol-resistant (CHO-TAX 5-6) cells (9) were generously provided by Dr. Fernando Cabral (University of Texas Medical School, Houston, Tex.).” left out
as §3, §4

For “4-sec-butyl[3-(ethyl)ureido]benzene [Example 4-sBEU]”, the microtubule depolymerization (β-tubulin [1]) was “no depolymerization”, the “formation of modified β-tubulin (second immunoreactive band of lower Mr)” value (β-tubulin [1]) was “no effect on β-tubulin” and the “cytotoxicity in words (active / inactive CEU)” value (MDA-MB-231 cells [2]) was “inactive”.

With “4-tert-butyl[3-(2-chloropropyl)ureido]benzene [Example 4-tBCPU]” the microtubule depolymerization (β-tubulin [1]) was “inactive” and the “cytotoxicity in words (active / inactive CEU)” value (MDA-MB-231 cells [2]) was “inactive”.

In the case of `O=C(O)CCCc1ccc(N(CCCl)CCCl)cc1` [CBL, Chlorambucil, reference compound], the “K′ (constant of alkylation of 4-(4-nitrobenzyl)pyridine)” value [3] is reported as 38.9 ± 5.1^a and the IC50 (MDA-MB-231 cells [2]; Homo sapiens, MDA-MB-231, read-out: IC50 (μM) MDA-MB-231) is reported as 9.3 ± 3.5 µM.

With `O=C(NCCCl)Nc1ccccc1` [CEU] the microtubule depolymerization (β-tubulin [1]) was “inactive” and the “cytotoxicity in words (active / inactive CEU)” value (MDA-MB-231 cells [2]) was “inactive”.

For `COc1cc2c(c(OC)c1OC)-c1ccc(OC)c(=O)cc1[C@@H](NC(C)=O)CC2` [Colchicine, reference compound], the “accumulation of cells in G2+M” value (MDA-MB-231 cells [4]) was “G2+M block”.

For `CCc1ccccc1NC(=O)NCCCl` [Example 2-ECEU, 2-ethyl[3-(2-chloroethyl)ureido]benzene], the microtubule depolymerization (β-tubulin [1]) was “no depolymerization”, the “formation of modified β-tubulin (second immunoreactive band of lower Mr)” value (β-tubulin [1]) was “no effect on β-tubulin” and the “cytotoxicity in words (active / inactive CEU)” value (MDA-MB-231 cells [2]) was “inactive”.

For `CCc1cccc(NC(=O)NCCCl)c1` [Example 3-ECEU, 3ethyl[3-(2-chloroethyl)ureido]benzene], the microtubule depolymerization (β-tubulin [1]) was “delayed in time” and the “formation of modified β-tubulin (second immunoreactive band of lower Mr)” value (β-tubulin [1]) was “delayed in time”.

For `CCc1ccc(NC(=O)NCCCl)cc1` [Example 4-ECEU, 4-ethyl(3-(2-chloroethyl)ureido]benzene], the microtubule depolymerization (β-tubulin [1]) was “delayed in time” and the “formation of modified β-tubulin (second immunoreactive band of lower Mr)” value (β-tubulin [1]) was “delayed in time”.

With `CCNC(=O)Nc1ccc(C(C)C)cc1` [Example 4-iPEU, 4-iso-propyl[3-(ethyl)ureido]benzene] the microtubule depolymerization (β-tubulin [1]) was “no depolymerization” and the “formation of modified β-tubulin (second immunoreactive band of lower Mr)” value (β-tubulin [1]) was “no effect on β-tubulin”.

In the case of `COc1ccc(NC(=O)NCCCl)cc1` [Example 4-methoxyCEU, 4-methoxy[3-(2-chloroethyl)ureido]benzene], the microtubule depolymerization (β-tubulin [1]) is reported as “inactive”.

With `CCNC(=O)Nc1ccc(C(C)(C)C)cc1` [Example 4-tBEU, 4-tert-butyl[3-(ethyl)ureido]benzene] the microtubule depolymerization (β-tubulin [1]) was “no depolymerization” and the “formation of modified β-tubulin (second immunoreactive band of lower Mr)” value (β-tubulin [1]) was “no effect on β-tubulin”.

With `CC(=O)O[C@H]1C(=O)[C@@]2(C)[C@H]([C@H](OC(=O)c3ccccc3)[C@]3(O)C[C@H](OC(=O)[C@H](O)[C@@H](NC(=O)c4ccccc4)c4ccccc4)C(C)=C1C3(C)C)[C@]1(OC(C)=O)CO[C@@H]1C[C@@H]2O` [Taxol, reference compound] the IC50 (CHO VV 3-2 cells) was 1100 ± 200 nM, the IC50 [5] was 1700 ± 300 nM and the “formation of modified β-tubulin (second immunoreactive band of lower Mr)” value (β-tubulin [1]) was “no such band”. For the same molecule, the “effect of competitor on formation of modified β-tubulin induced by CEU” value (shortened to “effect of competitor”) (β-tubulin [6]) was “abrogated the formation of modified β-tubulin” and the IC50 (CHO TAX 5-6 cells) was 6.1 µM.

With `CC[C@]1(O)C[C@@H]2CN(CCc3c([nH]c4ccccc34)[C@@](C(=O)OC)(c3cc4c(cc3OC)N(C)[C@H]3[C@@](O)(C(=O)OC)[C@H](OC(C)=O)[C@]5(CC)C=CCN6CC[C@]43[C@@H]65)C2)C1` [Vinblastine, reference compound] the IC50 (CHO VV 3-2 cells) was 94 ± 3 nM, the IC50 [5] was 30 ± 3 nM and the “accumulation of cells in G2+M” value (MDA-MB-231 cells [4]) was “G2+M block”. For the same molecule, the “formation of modified β-tubulin (second immunoreactive band of lower Mr)” value (β-tubulin [1]) was “no such band”, the “effect of competitor” value (β-tubulin [6]) was “but not vinblastine, prevented formation of the additional β-tubulin band; also recorded: but not vinblastine, prevented the formation of modified β-tubulin” and the IC50 (CHO TAX 5-6 cells) was 0.021 ± 0.003 µM.

For `NC(=O)CI` [iodoacetamide], the “effect of pre-treatment on β-tubulin alteration induced by EBI” value (β-tubulin [6]; 24 h with 5 μM colchicine, 5 μM vinblastine or 100 μM iodoacetamide, then 100 μM EBI for 2 h) was “abrogated” and the “effect of competitor” value (β-tubulin [6]) was “completely prevented β-tubulin alkylation by 4-tBCEU”.
